The results in this text go back to patent publication US20250228239A1, “MOLECULES HAVING PESTICIDAL UTILITY, AND INTERMEDIATES, COMPOSITIONS, AND PROCESSES, RELATED THERETO” (priority 2024, published 2025).

The structures appear in SMILES notation. Read-outs that look alike come from different tables or passages of the source.

Common to all, as to type: in vivo
Test [1] concerns Beet Armyworm (Spodoptera exigua, LAPHEG). Description: Bioassays on Beet Armyworm (BAW), 128-well diet tray assay. The note with it: Spodoptera exigua. The gist of the method: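 Second-instar larvae, one to five per well, were placed on artificial diet surface-treated with 50 μg/cm^2 compound in 90:10 acetone-water, eight wells per treatment. Trays were held 5–7 days at 25 °C, 14:10 light-dark. Percent mortality per well was averaged over eight wells.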

Test [2] concerns Cabbage Looper (Trichoplusia ni, TRIPNI). Briefly: Bioassays on Cabbage Looper (CL), 128-well diet tray assay. Conditions: Trichoplusia ni. The gist of the method: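 Diet tray, 2nd instar, 1–5 larvae/well; 50 μg/cm^2 compound surface-applied (acetone:water 90:10), dried; 8 wells/treatment; 25° C, 14:10 L:D, 5–7 d; % mortality, mean of 8 wells.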
Test [3] deals with Yellow Fever Mosquito (Aedes aegypti, AEDSAE). Conditions: for YFM rating: Table ABC / ABC-DP rating. In short, it runs like this:
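Compounds from 4000 ppm DMSO stocks were diluted in 90:10 water/acetone and dispensed into wells, then infested with about 1-day-old larvae in liver-powder water. Covered plates were held at room temperature for 3 days and each well was scored for mortality against a rating scale; six replicate plates per compound.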

Where [4] appears, read: Beet Armyworm, Table ABC / ABC-DP rating, read-out: BAW rating.
[5] abbreviates: Cabbage Looper, Table ABC / ABC-DP rating, read-out: CL rating.
Setting [6] is: Table ABC: Biological Results, species BAW, read-out: BAW.
[7] abbreviates: Table ABC: Biological Results, species CL, read-out: CL.
The mark [8] stands for this setting: Table ABC: Biological Results, species YFM.
The mark [9] stands for this setting: Beet Armyworm, rating class, read-out: BAW.
[10] abbreviates: Cabbage Looper, rating class, read-out: CL.
The mark [11] stands for this setting: Yellow Fever Mosquito, rating class.

Turning to `CCOC(=O)NNC(=O)c1cc(NC(=O)[C@H]2[C@H](c3cc(Cl)cc(Cl)c3)C2(Cl)Cl)ccc1Cl` (relative stereo) [F2542, trans-ethyl 2-(2-chloro-5-(2,2-dichloro-3-(3,5-dichlorophenyl)cyclopropane-1-carboxamido)benzoyl)hydrazine-1-carboxylate], the pest or weed control at 50 µg/cm2 in test [1] (setting [4]) and in test [2] (setting [5]) was 50 to 100% each time. Besides, the YFM rating result in test [3] (Yellow Fever Mosquito) is “B (More than 0 – Less than 80)”.

For `Cc1c(F)cc(NC(=O)[C@H]2[C@H](c3ccc(F)c(Cl)c3)C2(Cl)Cl)cc1C(=O)Nc1ccc(F)cc1F` (relative stereo) [F1279, trans-5-(2,2-Dichloro-3-(3-chloro-4-fluorophenyl)cyclopropane-1-carboxamido)-N-(2,4-difluorophenyl)-3-fluoro-2-methylbenzamide], the pest or weed control at 50 µg/cm2 in test [1] (setting [6]) and in test [2] (setting [7]) was 50 to 100% each time. Also, in test [3] (setting [8]), the YFM result is “B (More than 0 – Less than 80)”.

Turning to `CCC(F)(F)CNC(=O)c1cc(NC(=O)[C@H]2[C@H](c3cc(Cl)cc(Cl)c3)C2(Cl)Cl)cc(F)c1Cl` (relative stereo) [F2088, trans-2-Chloro-5-(2,2-dichloro-3-(3,5-dichlorophenyl)cyclopropane-1-carboxamido)-N-(2,2-difluorobutyl)-3-fluorobenzamide], the pest or weed control at 50 µg/cm2 in test [1] (setting [4]) and in test [2] (setting [5]) was 50 to 100% in each case. Besides, the YFM rating entry in test [3] (Yellow Fever Mosquito) is listed as “B (More than 0 – Less than 80)”.

Regarding `CC(=O)Nc1cc(F)ccc1NC(=O)c1cc(NC(=O)[C@H]2[C@H](c3cc(Cl)cc(Cl)c3)C2(Cl)Cl)ccc1Cl` (relative stereo) [F1637, trans-N-(2-Acetamido-4-fluorophenyl)-2-chloro-5-(2,2-dichloro-3-(3,5-dichlorophenyl)cyclopropane-1-carboxamido)benzamide], the pest or weed control at 50 µg/cm2 in test [1] (setting [9]) and in test [2] (setting [10]) was 50 to 100% throughout. Moreover, in test [3] (setting [11]), the YFM entry was “B (More than 0 – Less than 80)”.

In the case of `O=C(Nc1ccc(F)cc1)c1cc(NC(=O)[C@H]2[C@H](c3ccc(F)c(C(F)(F)F)c3)C2(Cl)Cl)c(F)cc1Cl` [F1725, 2-Chloro-5-((1R,3R)-2,2-dichloro-3-(4-fluoro-3-(trifluoromethyl)phenyl)cyclopropane-1-carboxamido)-4-fluoro-N-(4-fluorophenyl)benzamide], the pest or weed control at 50 µg/cm2 in test [1] (setting [9]) and in test [2] (setting [10]) was 50 to 100% in each case. For the same molecule, the YFM result in test [3] (setting [11]) is given as “A (80–100)”.

Turning to `CC(OCC1CC1)C(=O)Nc1c(F)ccc(NC(=O)c2cc(NC(=O)[C@H]3[C@H](c4ccc(F)c(C(F)(F)F)c4)C3(Cl)Cl)ccc2Cl)c1F` (stereo partly drawn) [F1745, 2-Chloro-N-(3-(2-(cyclopropylmethoxy)propanamido)-2,4-difluorophenyl)-5-((1R,3R)-2,2-dichloro-3-(4-fluoro-3-(trifluoromethyl)phenyl)cyclopropane-1-carboxamido)benzamide], the pest or weed control at 50 µg/cm2 in test [1] (setting [9]) and in test [2] (setting [10]) was 50 to 100% each time. The YFM result in test [3] (setting [11]) is reported as “A (80–100)”.

For `CS(=O)(=O)N(c1c(F)ccc(NC(=O)c2cc(NC(=O)[C@H]3[C@H](c4ccc(F)c(C(F)(F)F)c4)C3(Cl)Cl)ccc2Cl)c1F)S(C)(=O)=O` [F1277, 2-chloro-5-((1R,3R)-2,2-dichloro-3-(4-fluoro-3-(trifluoromethyl)phenyl)cyclopropane-1-carboxamido)-N-(2,4-difluoro-3-(N-(methylsulfonyl)methylsulfonamido)phenyl)benzamide], the pest or weed control at 50 µg/cm2 in test [1] (setting [6]) and in test [2] (setting [7]) was 50 to 100% throughout. For the same molecule, the YFM entry in test [3] (setting [8]) is recorded as “A (80–100)”.

For `CCCCC(=O)Nc1c(F)ccc(NC(=O)c2cc(NC(=O)[C@H]3[C@H](c4ccc(F)c(C(F)(F)F)c4)C3(Cl)Cl)ccc2Cl)c1F` [F1372, 2-Chloro-5-((1R,3R)-2,2-dichloro-3-(4-fluoro-3-(trifluoromethyl)phenyl)cyclopropane-1-carboxamido)-N-(2,4-difluoro-3-pentanamidophenyl)benzamide], the pest or weed control at 50 µg/cm2 in test [1] (setting [6]) and in test [2] (setting [7]) was 50 to 100% in each case. Also, in test [3] (setting [8]), the YFM result was “A (80–100)”.

For the molecule `C#CCCCC(=O)Nc1c(F)ccc(NC(=O)c2cc(NC(=O)[C@H]3[C@H](c4ccc(F)c(C(F)(F)F)c4)C3(Cl)Cl)ccc2Cl)c1F` [F1857], the pest or weed control at 50 µg/cm2 in test [1] (setting [4]) and in test [2] (setting [5]) was 50 to 100% in each case. For the same molecule, the YFM rating result in test [3] (Yellow Fever Mosquito) was “A (80–100)”.

For `O=C(CCC1CC1)Nc1c(F)ccc(NC(=O)c2cc(NC(=O)[C@H]3[C@H](c4ccc(F)c(C(F)(F)F)c4)C3(Cl)Cl)ccc2Cl)c1F` [F1854, 2-Chloro-N-(3-(3-cyclopropylpropanamido)-2,4-difluorophenyl)-5-((1R,3R)-2,2-dichloro-3-(4-fluoro-3-(trifluoromethyl)phenyl)cyclopropane-1-carboxamido)benzamide], the pest or weed control at 50 µg/cm2 in test [1] (setting [4]) and in test [2] (setting [5]) was 50 to 100% in each case. The YFM rating result in test [3] (Yellow Fever Mosquito) is reported as “A (80–100)”.

As to `O=C(Nc1ccc(F)c(NC(=O)C(F)(F)F)c1F)c1cc(NC(=O)[C@H]2[C@H](c3cc(Cl)cc(Cl)c3)C2(Cl)Cl)cc(F)c1F` [F1441, 5-((1R,3R)-2,2-Dichloro-3-(3,5-dichlorophenyl)cyclopropane-1-carboxamido)-N-(2,4-difluoro-3-(2,2,2-trifluoroacetamido)phenyl)-2,3-difluorobenzamide], the pest or weed control at 50 µg/cm2 in test [1] (setting [9]) and in test [2] (setting [10]) was 50 to 100% in each case. For the same molecule, the YFM result in test [3] (setting [11]) is reported as “A (80–100)”.

Regarding `O=C(NNCC1CC1)c1cc(NC(=O)[C@H]2[C@H](c3cc(Cl)cc(Cl)c3)C2(Cl)Cl)ccc1Cl` (relative stereo) [F2549, trans-2,2-Dichloro-N-(4-chloro-3-(2-(cyclopropylmethyl)hydrazine-1-carbonyl)phenyl)-3-(3,5-dichlorophenyl)cyclopropane-1-carboxamide], the pest or weed control at 50 µg/cm2 in test [1] (setting [4]) and in test [2] (setting [5]) was 50 to 100% in each case. The YFM rating entry in test [3] (Yellow Fever Mosquito) was “A (80–100)”.

Regarding `O=C(Nc1ccc(F)c(NC(=O)C(F)F)c1F)c1cc(NC(=O)[C@H]2[C@H](c3ccc(Cl)c(Cl)c3)C2(Cl)Cl)ccc1Cl` [F1065, 2-Chloro-5-((1R,3R)-2,2-dichloro-3-(3,4-dichlorophenyl)cyclopropane-1-carboxamido)-N-(3-(2,2-difluoroacetamido)-2,4-difluorophenyl)benzamide], the pest or weed control at 50 µg/cm2 in test [1] (setting [6]) and in test [2] (setting [7]) was 50 to 100% in each case. The YFM entry in test [3] (setting [8]) is “A (80–100)”.

In the case of `CCNC(=O)c1c(Cl)ccc(NC(=O)[C@H]2[C@H](c3ccc(F)c(Cl)c3)C2(Cl)Cl)c1Cl` (relative stereo) [F2019, trans-2,6-Dichloro-3-(2,2-dichloro-3-(3-chloro-4-fluorophenyl)cyclopropane-1-carboxamido)-N-ethylbenzamide], the pest or weed control at 50 µg/cm2 in test [1] (setting [4]) and in test [2] (setting [5]) was 50 to 100% throughout. The YFM rating result in test [3] (Yellow Fever Mosquito) is “A (80–100)”.

`CN(C(=O)c1cc(NC(=O)[C@H]2[C@H](c3ccc(F)c(C(F)(F)F)c3)C2(Cl)Cl)ccc1Cl)c1ccc(F)c(NC(=O)C(F)(F)F)c1F` [F1795, 2-Chloro-5-((1R,3R)-2,2-dichloro-3-(4-fluoro-3-(trifluoromethyl)phenyl)cyclopropane-1-carboxamido)-N-(2,4-difluoro-3-(2,2,2-trifluoroacetamido)phenyl)-N-methylbenzamide]: the pest or weed control at 50 µg/cm2 in test [1] (setting [4]) and in test [2] (setting [5]) was 50 to 100% in each case. Moreover, the YFM rating entry in test [3] (Yellow Fever Mosquito) is “A (80–100)”.

With `O=C1CCC(C(=O)Nc2c(F)ccc(NC(=O)c3cc(NC(=O)[C@H]4[C@H](c5ccc(F)c(C(F)(F)F)c5)C4(Cl)Cl)ccc3Cl)c2F)C1` (stereo partly drawn) [F1488, 2-Chloro-5-((1R,3R)-2,2-dichloro-3-(4-fluoro-3-(trifluoromethyl)phenyl)cyclopropane-1-carboxamido)-N-(2,4-difluoro-3-(3-oxocyclopentane-1-carboxamido)phenyl)benzamide], the pest or weed control at 50 µg/cm2 in test [1] (setting [9]) and in test [2] (setting [10]) was 50 to 100% each time. In test [3] (setting [11]), the YFM entry is “A (80–100)”.

Turning to `O=C(Nc1ccc(F)c(NC(=O)C2CCCO2)c1F)c1cc(NC(=O)[C@H]2[C@H](c3cc(F)cc(C(F)(F)F)c3)C2(Cl)Cl)ccc1Cl` (stereo partly drawn) [F1706, N-(3-(2-Chloro-5-((1R,3R)-2,2-dichloro-3-(3-fluoro-5-(trifluoromethyl)phenyl)cyclopropane-1-carboxamido)benzamido)-2,6-difluorophenyl)tetrahydrofuran-2-carboxamide], the pest or weed control at 50 µg/cm2 in test [1] (setting [9]) and in test [2] (setting [10]) was 50 to 100% in each case. Besides, the YFM entry in test [3] (setting [11]) is “A (80–100)”.

As for `O=C(Nc1ccc(F)cc1F)c1cc(NC(=O)[C@H]2[C@H](c3ccc(F)c(Cl)c3)C2(Cl)Cl)cc(F)c1Cl` (relative stereo) [F1153, trans-2-Chloro-5-(2,2-dichloro-3-(3-chloro-4-fluorophenyl)cyclopropane-1-carboxamido)-N-(2,4-difluorophenyl)-3-fluorobenzamide], the pest or weed control at 50 µg/cm2 in test [1] (setting [6]) and in test [2] (setting [7]) was 50 to 100% each time. Moreover, the YFM entry in test [3] (setting [8]) was “A (80–100)”.
